Assay [1] deals with SW480 (G12V). Description: In vitro cell proliferation inhibition test (CellTiter-Glo), SW480. It counts as cell-based. Particulars: Homo sapiens, SW480 colon cell line, KRAS (p.G12V), 72 h co-incubation. The source says: Test Example 1: In Vitro Cell Proliferation Inhibition Test
Due to the diversity of RAS mutations and in order to evaluate the activity of compounds in different RAS mutation cell lines, we selected KRAS^WT, KRAS^G12C, KRAS^G12D, KRAS^G12V and BRAF mutation cell lines (see the table below) for in vitro activity evaluation and screening of compounds.
Protocol: CellTiter-Glo® Cell Luminescent Viability Assay (Promega)
According to the doubling time of different cell lines, different numbers of cells (1000-5000 cells/well) were seeded in 96-well plates containing 180 μl of corresponding culture medium and cultured overnight in a cell culture incubator at 37° C. with 5% CO2. On the second day, the test compound was pre-diluted 3-fold with culture medium, with the highest concentration being 100 μM, for a total of 10 concentration gradients; then 20 μl of culture medium containing different concentrations of the compound was added to the cells in the 96-well plate to ensure that the final concentration of the compound was up to 10 μM, with 10 concentration gradients of 3-fold dilution. After the cells and compounds were co-incubated for 72 h, the 96-well plate was removed from the incubator and equilibrated at room temperature for 30 min. Then, 25 μl of CellTiter-Glo® Reagent was added to each well and mixed thoroughly. The mixture was incubated at room temperature for 10 min, and then 100 μl of the sample was transferred to a white 96-well plate (OptiPlate™-96, PerkinElmer). The […] signal value was read using a multi-function microplate reader (SpectraMax® i3x, Molecular devices). The signal values were then standardized, and the curve was fitted using a four-parameter regression equation to calculate the half maximal inhibitory concentration (IC50) of the compound on the cell line.

The subject of assay [2] is AsPC-1 (G12D). Description: In vitro cell proliferation inhibition test (CellTiter-Glo), AsPC-1. Particulars: Homo sapiens, ASPC1, AsPC-1 pancreas cell line, KRAS (p.G12D), 72 h co-incubation. It counts as cell-based. The procedure, abridged: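 Cells were seeded at 1000-5000/well by doubling time and cultured overnight at 37 °C, 5% CO2. They were then exposed for 72 h to 10-point, 3-fold compound dilutions (final top 10 μM), and viability was read by CellTiter-Glo luminescence. IC50 came from normalized signals fitted by four-parameter regression.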

Experimental findings from US20260193271A1, “PAN-KRAS INHIBITOR COMPOUND” (ADLAI NORTYE BIOPHARMA CO., LTD., priority 2022, published 2026) are described below.

Take `CCn1c(-c2cc(-c3nc(C)no3)cnc2[C@H](C)OC)c2c3cc(ccc31)-c1csc(n1)C[C@H](NC(=O)[C@H]1C[C@@H]1C)C(=O)N1CCC[C@H](N1)C(=O)OCC(C)(C)C2` (atropisomer, axis not shown) [Compound 21, (1S,2S)-N-((6^3S,4S,Z)-1^1-ethyl-1^2-(2-((S)-1-methoxyethyl)-5-(3-methyl-1,2,4-oxadiazol-5-yl)pyridin-3-yl)-10,10-dimethyl-5,7-dioxo-6^1,6^2,6^3,6^4,6^5,6^6-hexahydro-1^1H-8-oxa-2(4,2)-thiazola-1(5,3)-indola-6(1,3)-pyridazinacycloundecaphane-4-yl)-2-methylcyclopropane-1-carboxamide]: the figures for the IC50 in assay [1] and in assay [2] were 15 nM and 11 nM, respectively.

As for `CCn1c(-c2cc(-c3cc(CN4CCOCC4)on3)cnc2[C@H](C)OC)c2c3cc(ccc31)-c1csc(n1)C[C@H](NC(=O)[C@H]1C[C@@H]1C)C(=O)N1CCC[C@H](N1)C(=O)OCC(C)(C)C2` (atropisomer, axis not shown) [Compound 22, (1S,2S)-N-((6^3S,4S,Z)-1^1-ethyl-1^2-(2-((S)-1-methoxyethyl)-5-(5-(morpholinomethyl)isoxazol-3-yl)pyridin-3-yl)-10,10-dimethyl-5,7-dioxo-6^1,6^2,6^3,6^4,6^5,6^6-hexahydro-1^1H-8-oxa-2(4,2)-thiazola-1(5,3)-indola-6(1,3)-pyridazinacycloundecaphane-4-yl)-2-methylcyclopropane-1-carboxamide], the results for the IC50 in assay [1] and in assay [2] were 10 nM and 11 nM, respectively.

`CCn1c(-c2cc(-c3cc(CNC)on3)cnc2[C@H](C)OC)c2c3cc(ccc31)-c1csc(n1)C[C@H](NC(=O)[C@H]1C[C@@H]1C)C(=O)N1CCC[C@H](N1)C(=O)OCC(C)(C)C2` (atropisomer, axis not shown) [Compound 23, (1S,2S)-N-((6^3S,4S,Z)-1^1-ethyl-1^2-(2-((S)-1-methoxyethyl)-5-(5-((methylamino)methyl)isoxazol-3-yl)pyridin-3-yl)-10,10-dimethyl-5,7-dioxo-6^1,6^2,6^3,6^4,6^5,6^6-hexahydro-1^1H-8-oxa-2(4,2)-thiazola-1(5,3)-indola-6(1,3)-pyridazinacycloundecaphane-4-yl)-2-methylcyclopropane-1-carboxamide]: the IC50 in assay [1] worked out at 117 nM; in assay [2], 42 nM.

With `CCn1c(-c2cc(-c3cc([C@H]4CCCN4C)on3)cnc2[C@H](C)OC)c2c3cc(ccc31)-c1csc(n1)C[C@H](NC(=O)[C@H]1C[C@@H]1C)C(=O)N1CCC[C@H](N1)C(=O)OCC(C)(C)C2` (atropisomer, axis not shown) [Compound 24, (1S,2S)-N-((6^3S,4S,Z)-1^1-ethyl-1^2-(2-((S)-1-methoxyethyl)-5-(5-((R)-1-methylpyrrolidin-2-yl)isoxazol-3-yl)pyridin-3-yl)-10,10-dimethyl-5,7-dioxo-6^1,6^2,6^3,6^4,6^5,6^6-hexahydro-1^1H-8-oxa-2(4,2)-thiazola-1(5,3)-indola-6(1,3)-pyridazinacycloundecaphane-4-yl)-2-methylcyclopropane-1-carboxamide], the values for the IC50 in assay [1] and in assay [2] were 19 nM and 26 nM, respectively.

As for `CCn1c(-c2cc(-c3cc([C@@H]4CCCN4C)on3)cnc2[C@H](C)OC)c2c3cc(ccc31)-c1csc(n1)C[C@H](NC(=O)[C@H]1C[C@@H]1C)C(=O)N1CCC[C@H](N1)C(=O)OCC(C)(C)C2` (atropisomer, axis not shown) [Compound 25, (1S,2S)-N-((6^3S,4S,Z)-1^1-ethyl-1^2-(2-((S)-1-methoxyethyl)-5-(5-((S)-1-methylpyrrolidin-2-yl)isoxazol-3-yl)pyridin-3-yl)-10,10-dimethyl-5,7-dioxo-6^1,6^2,6^3,6^4,6^5,6^6-hexahydro-1^1H-8-oxa-2(4,2)-thiazola-1(5,3)-indola-6(1,3)-pyridazinacycloundecaphane-4-yl)-2-methylcyclopropane-1-carboxamide], the figures for the IC50 in assay [1] and in assay [2] were 22 nM and 20 nM, respectively.

In the case of `CCn1c(-c2cc(-c3cc([C@H]4CN(C)CCO4)on3)cnc2[C@H](C)OC)c2c3cc(ccc31)-c1csc(n1)C[C@H](NC(=O)[C@H]1[C@H](C)[C@@H]1C)C(=O)N1CCC[C@H](N1)C(=O)OCC(C)(C)C2` (atropisomer, axis not shown) [Compound 26, (1r,2R,3S)-N-((6^3S,4S,Z)-1^1-ethyl-1^2-(2-((S)-1-methoxyethyl)-5-(5-((R)-4-methylmorpholin-2-yl)isoxazol-3-yl)pyridin-3-yl)-10,10-dimethyl-5,7-dioxo-6^1,6^2,6^3,6^4,6^5,6^6-hexahydro-1^1H-8-oxa-2(4,2)-thiazola-1(5,3)-indola-6(1,3)-pyridazinacycloundecaphane-4-yl)-2,3-dimethylcyclopropane-1-carboxamide], the values for the IC50 in assay [1] and in assay [2] were 2.5 nM and 10 nM, respectively.

As for `CCn1c(-c2cc(-c3cc([C@@H]4CN(C)CCO4)on3)cnc2[C@H](C)OC)c2c3cc(ccc31)-c1csc(n1)C[C@H](NC(=O)[C@H]1[C@H](C)[C@@H]1C)C(=O)N1CCC[C@H](N1)C(=O)OCC(C)(C)C2` (atropisomer, axis not shown) [Compound 27, (1r,2R,3S)-N-((6^3S,4S,Z)-1^1-ethyl-1^2-(2-((S)-1-methoxyethyl)-5-(5-((S)-4-methylmorpholin-2-yl)isoxazol-3-yl)pyridin-3-yl)-10,10-dimethyl-5,7-dioxo-6^1,6^2,6^3,6^4,6^5,6^6-hexahydro-1^1H-8-oxa-2(4,2)-thiazola-1(5,3)-indola-6(1,3)-pyridazinacycloundecaphane-4-yl)-2,3-dimethylcyclopropane-1-carboxamide], the IC50 in assay [1] worked out at 1.8 nM; in assay [2], 1.1 nM.

Turning to `CCn1c(-c2cc(-c3cc([C@@H]4CCN(C)C4)on3)cnc2[C@H](C)OC)c2c3cc(ccc31)-c1csc(n1)C[C@H](NC(=O)[C@H]1[C@H](C)[C@@H]1C)C(=O)N1CCC[C@H](N1)C(=O)OCC(C)(C)C2` (atropisomer, axis not shown) [Compound 29, (1r,2R,3S)-N-((6^3S,4S,Z)-1^1-ethyl-1^2-(2-((S)-1-methoxyethyl)-5-(5-((R)-1-methylpyrrolidin-3-yl)isoxazol-3-yl)pyridin-3-yl)-10,10-dimethyl-5,7-dioxo-6^1,6^2,6^3,6^4,6^5,6^6-hexahydro-1^1H-8-oxa-2(4,2)-thiazola-1(5,3)-indola-6(1,3)-pyridazinacycloundecaphane-4-yl)-2,3-dimethylcyclopropane-1-carboxamide], the IC50 worked out at 10 nM in assay [1] and 3.2 nM in assay [2].

`CCn1c(-c2cc(-c3cc(C4CCN(C)CC4)on3)cnc2[C@H](C)OC)c2c3cc(ccc31)-c1csc(n1)C[C@H](NC(=O)[C@H]1C[C@@H]1C)C(=O)N1CCC[C@H](N1)C(=O)OCC(C)(C)C2` (atropisomer, axis not shown) [Compound 30, (1S,2S)-N-((6^3S,4S,Z)-1^1-ethyl-1^2-(2-((S)-1-methoxyethyl)-5-(5-(1-methylpiperidin-4-yl)isoxazol-3-yl)pyridin-3-yl)-10,10-dimethyl-5,7-dioxo-6^1,6^2,6^3,6^4,6^5,6^6-hexahydro-1^1H-8-oxa-2(4,2)-thiazola-1(5,3)-indola-6(1,3)-pyridazinacycloundecaphane-4-yl)-2-methylcyclopropane-1-carboxamide]: the IC50 amounted to 0.44 nM in assay [1] and 0.58 nM in assay [2].

Turning to `CCn1c(-c2cc(-c3cc(C4CN(C)C4)on3)cnc2[C@H](C)OC)c2c3cc(ccc31)-c1csc(n1)C[C@H](NC(=O)[C@H]1C[C@@H]1C)C(=O)N1CCC[C@H](N1)C(=O)OCC(C)(C)C2` (atropisomer, axis not shown) [Compound 31, (1S,2S)-N-((6^3S,4S,Z)-1^1-ethyl-1^2-(2-((S)-1-methoxyethyl)-5-(5-(1-methylazetidin-3-yl)isoxazol-3-yl)pyridin-3-yl)-10,10-dimethyl-5,7-dioxo-6^1,6^2,6^3,6^4,6^5,6^6-hexahydro-1^1H-8-oxa-2(4,2)-thiazola-1(5,3)-indola-6(1,3)-pyridazinacycloundecaphane-4-yl)-2-methylcyclopropane-1-carboxamide], the IC50 in assay [1] is 2 nM; in assay [2] it was 1.6 nM.

Turning to `CCn1c(-c2cc(-c3cc([C@@H]4COCCN4C)on3)cnc2[C@H](C)OC)c2c3cc(ccc31)-c1csc(n1)C[C@H](NC(=O)[C@H]1[C@H](C)[C@@H]1C)C(=O)N1CCC[C@H](N1)C(=O)OCC(C)(C)C2` (atropisomer, axis not shown) [Compound 32, (1r,2R,3S)-N-((6^3S,4S,Z)-1^1-ethyl-1^2-(2-((S)-1-methoxyethyl)-5-(5-((S)-4-methylmorpholin-3-yl)isoxazol-3-yl)pyridin-3-yl)-10,10-dimethyl-5,7-dioxo-6^1,6^2,6^3,6^4,6^5,6^6-hexahydro-1^1H-8-oxa-2(4,2)-thiazola-1(5,3)-indola-6(1,3)-pyridazinacycloundecaphane-4-yl)-2,3-dimethylcyclopropane-1-carboxamide], the half-inhibitory concentration (IC50) in assay [1] was found to be 1.6 nM; in assay [2], 1.3 nM.
